These results are taken from patent publication US6623741B1, “Methods and compositions for inhibition of membrane fusion-associated events including RSV transmission” (Trimeris, Inc., priority 2000, dated 2003).

One data set concerns RSV. The data set is described as follows: Anti-RSV antiviral activity assay (syncytial formation, HEp2 cells). Format: cell-based, respiratory syncytial virus. The settings on record: purified peptides. As for the experimental part:
Anti-RSV Antiviral Activity Assays:
The assay utilized herein tested the ability of the peptides to disrupt the ability of HEp2 cells acutely infected with RSV (i.e., cells which are infected with a multiplicity of infection of greater than 2) to fuse and cause syncytial formation on a monolayer of uninfected an uninfected line of Hep-2 cells. The lower the observed level of fusion, the greater the antiviral activity of the peptide was determined to be. […]
After incubation, cells in control wells were checked for fusion centers, media was removed from the wells, followed by addition, to each well, of either Crystal Violet stain or XTT. […] The number of syncytia per well were then counted, using a dissecting microscope.
With respect to XTT (2,3-bis[2-Methoxy-4-nitro-5-sulfophenyl]-2H-tetrazolium-5-carboxyanilide inner salt), 50 μl XTT (1 mg/ml in RPMI buffered with 100 mM HEPES, pH 7.2-7.4, plus 5% DMSO) were added to each well. The OD450/690 was measured (after blanking against growth medium without cells or reagents, and against reagents) according to standard procedures. […]

Data set [1] has as its target T1, DP107-like domain of the RSV F1-protein (MF5.1 fusion protein) (Human respiratory syncytial virus A, UniProt P03420).
T1 construct: made in house
The data set is described as follows: biochemical. Particulars: binding affinity for the DP107-like domain of RSV F1 protein. Format: binding. As for the experimental part:
After incubation and washing, unbound Fab-d is removed from the plates and bound Fab-d is quantitated. A no-inhibitor control should also be conducted.
Such an assay takes advantage of accepted radioligand and receptor binding principles. (See, for example, Yamamura, H. I. et al., 1985, “Neurotransmitter Receptor Binding”, 2nd ed., Raven Press, NY.) As above, M41Δ78 is immobilized onto a solid support such as a microtiter well. […] Specific binding to M41Δ78 is defined as the difference of the binding of the labeled DP178 preparation in the microtiter wells (totals) and the binding in identical wells containing, in addition, excess unlabeled DP178 (nonspecifics).
Specifically, the DNA sequence corresponding amino acid residues 142-302 of the RSV F1 protein was amplified by PCR and cloned into the Xmn I site of the expression vector pMal-p2 (New England Biolab) to give MF5.1. These amino acid residues correspond to the extracellular domain of the RSV F1 protein including its DP107 region but excluding the DP178 region.
Cell fusion assays were performed with each of the peptides as described in Section 17 above.

Data set [2] is described as follows: Analytical ultracentrifugation (sedimentation equilibrium). It counts as physicochemical. As for the experimental part: Analytical Ultracentrifugation:
Sedimentation equilibrium experiments were performed on a Beckman Optima XL-A analytical ultracentrifuge at 4° C. Six-channel cells (12 mm optical path length) were used with an An-60 Ti rotor operated at 13,500, 16,000, 17,000, 20,000, 21,000, 24,000, 25,000, 27,500, 30,000 and 35,000 rpm. The cell radii were scanned using 0.001 cm steps with 10 averages/scan. Data were analyzed using Beckman XLA data analysis software (version 3.01 for Windows) and Beckman-Origin software (version 3.78 for Windows). […] The partial specific volumes were held constant for all models considered.
Single data files were normalized to 270 nm absorbance values using Beer's Law. The data obtained with solutions containing the DP107-like peptides were then analyzed using a single ideal species model to determine a weight-averaged molecular weight (Mw). Diagnostic plots of Mw/Mw0 vs. rpm/rpm0 and Mw vs. radial concentration were used to test for sample homogeneity as described, e.g., by McRorie & Voelker, 1993, Self-Associating Systems in the Analytical Ultracentrifuge, Beckman Instruments, Inc., Palo Alto; and Yphantis et al., 1978, in Physical Aspects of Protein Interactions: Proceedings of the Symposium on Protein Interactions, American Chemical Society Meeting, Catsimpoolas, Ed., pp. 275-303, Elsevier, Miami Beach, Fla. When systematic residuals or a Mw higher than the monomer molecular weight indicated the presence of self-association, associative models such as monomer/trimer, monomer/tetramer and monomer/dimer/tetrarner were investigated. The suitability of a particular model (i.e., the goodness of fit) was judged by the trends observed in the residuals (Johnson & Straume, 1994, in Modern Analytical Ultracentrifugation, Schuster et al., eds., pp. 37-65, Birkhauser, Boston). Using the associative model which produced random residuals when fitting individual data files, a simultaneous, global, weighted fit of multiple data files (up to nine files with different concentrations and speeds) was performed to determine the association constant and 95% confidence intervals. To convert the resulting association constant from absorbance units to concentration units, it was assumed that the absorbance of the n-mer is n times that of the monomer.
The data obtained with DP107-like/DP178-like peptide mixtures were first analyzed with a single ideal species model. When a systematic trend in residuals coupled with the Mw not equal to a precise multimer of HR1+HR2 were obtained, and alternate fitting scheme was explored. For this approach, it was assumed that the solution contained fully associated HR1-HR2 complexes and unassociated DP107-like and DP178-like peptides. The mixtures were analyzed with a two-ideal species model, choosing one species to have a molecular weight of either 28,269 Da (corresponding to three DP107-like plus three DP178-like peptides) or […] (corresponding to four DP107-like plus four DP178-like peptides).

Several values for one entry are separate records, joined by “and”; a condition that tells them apart may be missing. Identical values can stand only once.

T1 sequence (P03420 142-302): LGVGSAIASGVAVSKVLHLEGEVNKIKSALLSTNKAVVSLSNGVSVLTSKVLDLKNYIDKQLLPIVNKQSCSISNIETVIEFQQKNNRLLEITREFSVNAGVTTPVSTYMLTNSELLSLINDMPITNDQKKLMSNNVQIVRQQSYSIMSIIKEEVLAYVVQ

For `CC[C@H](C)[C@H](NC(=O)[C@H](Cc1ccccc1)NC(=O)[C@H](C)NC(=O)[C@H](CC(C)C)NC(=O)[C@H](CO)NC(=O)[C@H](CCC(N)=O)NC(=O)[C@H](CC(N)=O)NC(=O)[C@@H](NC(=O)[C@H](CCCCN)NC(=O)[C@H](CCC(=O)O)NC(=O)[C@H](CC(N)=O)NC(=O)[C@@H](NC(=O)[C@H](CCC(N)=O)NC(=O)[C@H](CO)NC(=O)[C@@H](NC(=O)[C@H](CO)NC(=O)[C@H](C)NC(=O)[C@H](CC(=O)O)NC(=O)[C@H](Cc1ccccc1)NC(=O)[C@H](CCC(=O)O)NC(=O)[C@H](CC(=O)O)NC(=O)[C@H](CO)NC(=O)[C@@H]1CCCN1C(=O)[C@H](Cc1ccccc1)NC(=O)[C@@H](NC(C)=O)C(C)C)[C@@H](C)CC)C(C)C)[C@@H](C)CC)C(=O)N[C@@H](CCCNC(=N)N)C(=O)N[C@@H](CCCCN)C(=O)N[C@@H](CO)C(=O)N[C@@H](CC(=O)O)C(=O)N[C@@H](CCC(=O)O)C(=O)N[C@@H](CC(C)C)C(=O)N[C@@H](CC(C)C)C(=O)N[C@@H](Cc1c[nH]cn1)C(=O)N[C@@H](CC(N)=O)C(=O)N[C@H](C(N)=O)C(C)C` [Peptide T112], the “anti-RSV antiviral activity (in words)” value in the data set on RSV is given as “substantial antiviral activity”. Besides, the Kd in data set [1] was 2 nM and 1 nM. Moreover, the “oligomerization state in solution (in words)” value in data set [2] is reported as “behaves as a monomer”. Also, the Mw value in data set [2] (50 μM, 25,000, 30,000 and 35,000 rpm) is 3,984 Da.
